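Cells were grown in 96-well plates and exposed to each compound for 48 hours at five concentrations; endpoints were interpolated linearly between bracketing concentrations, or set to the highest concentration if not reached. GI50: concentration for 50% inhibition of growth.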 The source made the active and inactive calls. Rule as the data show it: active = GI50 up to about 1.1 µM and inactive = higher.
What was measured:
Assay in all cases: NCI anticancer screen, dose series, 48 h
[1] = system: CCRF-CEM
[2] = system: NCI-H522
[3] = system: HL-60
[4] = system: UO-31
[5] = system: NCI-H226
[6] = system: UACC-257
[7] = system: MDA-MB-435
[8] = system: SF-539
[9] = system: SW-620
[10] = system: SK-OV-3
[11] = system: HCT-15
[12] = system: ACHN
[13] = system: 786-0
[14] = system: SNB-19
[15] = system: MDA-MB-231
[16] = system: SK-MEL-5
[17] = system: IGROV-1
[18] = system: MDA-N
[19] = system: HCC 2998
[20] = system: RPMI-8226
[21] = system: SK-MEL-2
[22] = system: M14
[23] = system: COLO 205
[24] = system: U-251
[25] = system: SF-268
[26] = system: RXF 393
[27] = system: SNB-75
[28] = system: Hs-578T
[29] = system: MCF7
[30] = system: UACC-62
[31] = system: NCI/ADR-RES
[32] = system: EKVX
[33] = system: HOP-92
[34] = system: NCI-H23
[35] = system: T47D
[36] = system: OVCAR-4
[37] = system: DU-145
[38] = system: HT-29
[39] = system: K562
[40] = system: TK-10
[41] = system: OVCAR-5
[42] = system: MOLT-4
[43] = system: OVCAR-3
[44] = system: SN12C
[45] = system: HOP-62
[46] = system: BT-549
[47] = system: NCI-H460
[48] = system: SF-295
[49] = system: SK-MEL-28
[50] = system: KM12
[51] = system: A549
[52] = system: Malme-3M
[53] = system: CAKI-1
[54] = system: HCT-116
[55] = system: OVCAR-8
[56] = system: PC-3
[57] = system: SR
[58] = system: A498
[59] = system: LOX IMVI
[60] = system: DLD-1
[61] = system: M19-MEL
[62] = system: KM-20L2
[63] = system: LXFL 529
[64] = system: DMS-114
[65] = system: SNB-78

COc1ccc(-c2cn3c(nc4ccccc43)c(C)n2)cc1
GI50 [1]: > 100 µM (inactive)
GI50 [2]: 39.1 µM (inactive)
GI50 [3]: > 56.1 µM (inactive)
GI50 [4]: 13.7 µM (inactive)
GI50 [5]: > 68.5 µM (inactive)
GI50 [6]: > 61.9 µM (inactive)
GI50 [7]: > 96.2 µM (inactive)
GI50 [8]: 76.7 µM (inactive)
GI50 [9]: > 100 µM (inactive)
GI50 [10]: 10.2 µM (inactive)
GI50 [11]: > 93.1 µM
GI50 [12]: 45.2 µM (inactive)
GI50 [13]: 41 µM (inactive)
GI50 [14]: 44.9 µM (inactive)
GI50 [15]: > 100 µM (inactive)
GI50 [16]: 21.5 µM (inactive)
GI50 [17]: 28.8 µM (inactive)
GI50 [18]: > 100 µM (inactive)
GI50 [19]: > 100 µM (inactive)
GI50 [20]: > 75.9 µM (inactive)
GI50 [21]: 44.9 µM (inactive)
GI50 [22]: > 100 µM (inactive)
GI50 [23]: > 100 µM (inactive)
GI50 [24]: 50.4 µM (inactive)
GI50 [25]: > 51.5 µM (inactive)
GI50 [26]: 44.5 µM (inactive)
GI50 [27]: > 50.8 µM (inactive)
GI50 [28]: 41.6 µM (inactive)
GI50 [29]: 12.2 µM (inactive)
GI50 [30]: 35.3 µM (inactive)
GI50 [31]: 33.6 µM (inactive)
GI50 [32]: 83 µM (inactive)
GI50 [33]: 21.7 µM (inactive)
GI50 [34]: 50.4 µM (inactive)
GI50 [35]: 8.3 µM (inactive)
GI50 [36]: 47.6 µM (inactive)
GI50 [37]: 51.1 µM (inactive)
GI50 [38]: > 100 µM (inactive)
GI50 [39]: > 100 µM (inactive)
GI50 [40]: 58.9 µM (inactive)
GI50 [41]: > 78.5 µM (inactive)
GI50 [42]: > 100 µM (inactive)
GI50 [43]: 54.8 µM (inactive)
GI50 [44]: > 77.1 µM (inactive)
GI50 [45]: 31.8 µM (inactive)
GI50 [46]: 33.7 µM (inactive)
GI50 [47]: 60.1 µM (inactive)
GI50 [48]: 55 µM (inactive)
GI50 [49]: 95.5 µM (inactive)
GI50 [50]: > 100 µM (inactive)
GI50 [51]: 86.5 µM (inactive)
GI50 [52]: 69.2 µM (inactive)
GI50 [53]: 52.1 µM (inactive)
GI50 [54]: 85.1 µM (inactive)
GI50 [55]: 34.4 µM (inactive)
GI50 [56]: 72.3 µM (inactive)
GI50 [57]: > 77.4 µM (inactive)
GI50 [58]: > 76.4 µM (inactive)
GI50 [59]: > 93.5 µM (inactive)

O=C(NC1=C(Cl)C(=O)c2ccccc2C1=O)C(=O)C(C(=O)c1ccc2ccccc2c1)C1OC(=O)c2ccccc21 (centres undefined)
GI50 [1]: 2.87 µM (inactive)
GI50 [2]: 3.94 µM (inactive)
GI50 [3]: 2.49 µM (inactive)
GI50 [4]: 13.2 µM (inactive)
GI50 [5]: 0.986 µM (active)
GI50 [6]: 2.19 µM (inactive)
GI50 [7]: 1.7 µM (inactive)
GI50 [8]: 2.95 µM (inactive)
GI50 [9]: 5.13 µM (inactive)
GI50 [60]: 4.31 µM (inactive)
GI50 [61]: 0.309 µM (active)
GI50 [62]: 4.52 µM (inactive)
GI50 [10]: 13.2 µM (inactive)
GI50 [11]: 3.77 µM
GI50 [12]: 7.29 µM (inactive)
GI50 [13]: 5.92 µM (inactive)
GI50 [14]: 6.03 µM (inactive)
GI50 [16]: 0.564 µM (active)
GI50 [63]: 4.43 µM (inactive)
GI50 [17]: 7.73 µM (inactive)
GI50 [19]: 9.55 µM (inactive)
GI50 [20]: 2.05 µM (inactive)
GI50 [21]: 4.94 µM (inactive)
GI50 [22]: 2.18 µM (inactive)
GI50 [64]: 2.36 µM (inactive)
GI50 [23]: 7.4 µM (inactive)
GI50 [24]: 4.38 µM (inactive)
GI50 [25]: 4.53 µM (inactive)
GI50 [26]: 4.49 µM (inactive)
GI50 [27]: 2.87 µM (inactive)
GI50 [28]: 6.25 µM (inactive)
GI50 [29]: 2.74 µM (inactive)
GI50 [30]: 1.73 µM (inactive)
GI50 [32]: 12 µM (inactive)
GI50 [34]: 2.9 µM (inactive)
GI50 [35]: 5.35 µM (inactive)
GI50 [65]: 3.76 µM (inactive)
GI50 [36]: 6.97 µM (inactive)
GI50 [37]: 10.6 µM (inactive)
GI50 [38]: 4.07 µM (inactive)
GI50 [39]: 3.55 µM (inactive)
GI50 [40]: 25.6 µM (inactive)
GI50 [41]: 11.8 µM (inactive)
GI50 [42]: 2.06 µM (inactive)
GI50 [43]: 2.7 µM (inactive)
GI50 [44]: 4.36 µM (inactive)
GI50 [45]: 5.82 µM (inactive)
GI50 [46]: 3.48 µM (inactive)
GI50 [47]: 2.96 µM (inactive)
GI50 [48]: 3.3 µM (inactive)
GI50 [49]: 4.59 µM (inactive)
GI50 [50]: 3.09 µM (inactive)
GI50 [51]: 4.72 µM (inactive)
GI50 [52]: 1.7 µM (inactive)
GI50 [53]: 6.34 µM (inactive)
GI50 [54]: 3.52 µM (inactive)
GI50 [55]: 4.61 µM (inactive)
GI50 [57]: 3.31 µM (inactive)
GI50 [58]: 4.68 µM (inactive)
GI50 [59]: 1.08 µM (active)
